# Read-outs that look alike come from different tables or passages of the source.
# Key:
# F508del-CFTR = F508del-CFTR (Homo sapiens (Human), UniProt P13569, DEL508-508); experiment: Membrane potential optical (fluorescent voltage sensing dye, FLIPR III) HTS assay for F508del-CFTR modulators; format: cell-based
# Source text: Membrane Potential Optical Methods for Assaying Properties of F508del-CFTR Modulators
# The assay utilizes fluorescent voltage sensing dyes to measure changes in membrane potential using a fluorescent plate reader (e.g., FLIPR III, Molecular Devices, Inc.) as a readout for increase in functional F508del in NIH 3T3 cells.
# 5A-A1. Identification of F508Del-CFTR Modulators
# To identify modulators of F508del, a fluorescence based HTS assay format was developed. This HTS assay utilizes fluorescent voltage sensing dyes to measure changes in membrane potential on the FLIPR III as a measurement for increase in gating (conductance) of F508del NIH 3T3 cells.
# (in mM) NaCl 160, KCl 4.5, CaCl2 2, MgCl2 1, HEPES 10, pH 7.4 with NaOH, Glucose 10.
# Chloride salts in Bath Solution #1 (above) are substituted with gluconate salts.
# NIH3T3 mouse fibroblasts stably expressing F508del are used for optical measurements of membrane potential. The cells are maintained at 37° C. in 5% CO2 and 90% humidity in Dulbecco's modified Eagle's medium supplemented with 2 mM glutamine, 10% fetal bovine serum, 1×NEAA, β-ME, 1×pen/strep, and 25 mM HEPES in 175 cm^2 culture flasks. For all optical assays, the cells were seeded at 12,000 cells/well in 384-well matrigel-coated plates and cultured for 18-24 hrs at 37° C. for the potentiator assay. For the correction assays, the cells are cultured at 37° C. with and without compounds for 18-24 hours.
# Rat IV and PO PK studies = format: in vivo, male Sprague-Dawley rats; settings: male, Sprague-Dawley, plasma; for bioavailability / AUC: oral; for bioavailability: read-out: Rat po % F; for clearance: intravenous, 3.0 mg/kg, read-out: Rat iv CL
# Description: 5C. Experimental Protocol for Rat IV and PO PK Studies
# […] […] Analyses of plasma and dose preparations were performed using LC/MS/MS.
# Plasma concentration-time profiles of the tested compound in Sprague-Dawley rats at scheduled (nominal) sampling times were analyzed by noncompartmental pharmacokinetic methods using PK function within Watson LIMS software, Version 7.4.2 (Thermo Scientific Inc, Waltham, Mass.). AUC values were calculated using the linear trapezoidal rule.
# human PXR = human PXR (Homo sapiens (Human), UniProt O75469); experiment: PXR assay (PXR mediated CYP3A4 induction, DPX-2 cell line); format: cell-based; settings: DPX-2 cells, 48 hours, 0.1 to 60 μM
# Description: 5D. Experimental Protocol for PXR Assay
# The propensity for PXR mediated CYP3A4 induction is assessed using the DPX-2 cell line in vitro. This cell line, which has been licensed from Puracyp Inc. was derived from HepG2 cells and has been stably transfected with genes encoding human PXR as well as a modified luciferase reporter linked to the CYP3A4 promoter region and related distal and proximal enhancers.
# The assay is run in 384 well format and each test article is administered in 11 doses ranging from 0.1 to 60 μM. On day 1, DPX-2 cells which have previously been expanded in-house and cryopreserved are thawed and seeded in tissue culture plates. The following day, media is changed and cells are cultured in media containing test article, vehicle control or the positive control compound, the clinically validated CYP3A4 inducer rifampicin. Cells are cultured in the presence of test article for 48 hours and then cell viability is assessed using fluorescence based assay (Cell Titer-Fluor, Promega) with an EnVision Plate Reader (PerkinElmer). Subsequently, CYP3A4 transactivation, which is proportional to luciferase activity, is measured by reading luminescense using the Promega One-Glo reagent system using the same plate reader.
# Data processing within the Genedata software package allows reporting of max fold induction compared to vehicle control, an EC50 value for CYP3A4 inducers and an 11 point-dose response curve.
# [1] = F508del NIH 3T3 cells, assay 5A-A1, read-out: CFTRdF508 EC50
# [2] = Table 9, read-out: CFTR dF508 EC50
# Sequence of human PXR (O75469 whole entry): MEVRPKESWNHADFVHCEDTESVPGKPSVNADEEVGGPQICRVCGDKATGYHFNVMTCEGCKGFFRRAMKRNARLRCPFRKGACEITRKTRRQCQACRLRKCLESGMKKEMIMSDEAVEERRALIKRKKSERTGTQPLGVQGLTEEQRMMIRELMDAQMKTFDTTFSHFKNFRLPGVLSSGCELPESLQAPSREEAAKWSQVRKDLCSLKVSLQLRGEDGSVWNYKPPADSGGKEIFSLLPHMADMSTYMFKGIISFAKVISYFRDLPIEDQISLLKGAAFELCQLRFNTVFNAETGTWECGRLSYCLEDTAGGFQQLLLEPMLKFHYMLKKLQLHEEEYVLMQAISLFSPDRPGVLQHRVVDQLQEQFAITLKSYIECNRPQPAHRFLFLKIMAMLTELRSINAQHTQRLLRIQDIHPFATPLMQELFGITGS
# Sequence of F508del-CFTR (P13569 other isoform, or with tags, fused parts or gaps del F508-F508): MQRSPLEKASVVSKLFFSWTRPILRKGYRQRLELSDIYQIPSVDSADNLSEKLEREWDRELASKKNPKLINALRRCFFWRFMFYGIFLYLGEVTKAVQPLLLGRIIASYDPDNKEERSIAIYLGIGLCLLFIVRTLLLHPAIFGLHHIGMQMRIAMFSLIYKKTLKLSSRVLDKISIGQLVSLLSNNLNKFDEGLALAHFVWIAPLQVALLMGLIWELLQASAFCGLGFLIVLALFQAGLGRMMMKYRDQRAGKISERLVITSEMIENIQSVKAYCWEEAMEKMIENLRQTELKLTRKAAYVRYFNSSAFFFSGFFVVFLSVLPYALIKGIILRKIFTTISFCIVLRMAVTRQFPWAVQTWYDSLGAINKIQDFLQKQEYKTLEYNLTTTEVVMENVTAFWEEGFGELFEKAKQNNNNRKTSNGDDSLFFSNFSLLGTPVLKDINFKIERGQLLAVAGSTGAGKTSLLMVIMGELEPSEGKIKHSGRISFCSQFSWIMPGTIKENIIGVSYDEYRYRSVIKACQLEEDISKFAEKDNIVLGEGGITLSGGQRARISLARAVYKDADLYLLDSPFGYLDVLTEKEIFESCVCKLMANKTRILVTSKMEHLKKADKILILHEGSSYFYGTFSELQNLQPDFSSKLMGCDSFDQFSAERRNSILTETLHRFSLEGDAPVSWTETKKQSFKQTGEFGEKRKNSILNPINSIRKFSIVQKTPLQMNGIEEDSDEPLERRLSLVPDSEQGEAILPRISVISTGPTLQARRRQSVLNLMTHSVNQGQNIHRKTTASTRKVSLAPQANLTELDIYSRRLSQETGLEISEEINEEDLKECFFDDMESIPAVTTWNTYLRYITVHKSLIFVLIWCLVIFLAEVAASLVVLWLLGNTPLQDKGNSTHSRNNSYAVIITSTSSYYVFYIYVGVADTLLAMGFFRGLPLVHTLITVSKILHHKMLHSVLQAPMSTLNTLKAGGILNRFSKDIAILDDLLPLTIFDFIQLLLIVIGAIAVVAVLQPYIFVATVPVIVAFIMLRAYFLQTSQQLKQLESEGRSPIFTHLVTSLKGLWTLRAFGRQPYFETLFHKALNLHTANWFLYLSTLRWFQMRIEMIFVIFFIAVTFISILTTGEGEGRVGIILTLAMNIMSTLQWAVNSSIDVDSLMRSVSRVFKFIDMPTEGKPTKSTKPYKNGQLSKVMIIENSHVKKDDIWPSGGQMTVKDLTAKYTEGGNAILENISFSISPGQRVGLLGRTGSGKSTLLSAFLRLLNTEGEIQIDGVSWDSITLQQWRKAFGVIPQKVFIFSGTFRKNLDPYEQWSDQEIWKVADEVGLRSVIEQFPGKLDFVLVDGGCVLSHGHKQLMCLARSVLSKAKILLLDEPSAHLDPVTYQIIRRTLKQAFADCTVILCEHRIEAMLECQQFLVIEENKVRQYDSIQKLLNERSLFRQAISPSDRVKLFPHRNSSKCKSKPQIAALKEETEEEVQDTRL
EC50 (F508del-CFTR; [1]) [µM],EC50 (F508del-CFTR; [2]) [µM],bioavailability (Rat IV and PO PK studies; 3 mg/kg) [%],clearance (Rat IV and PO PK studies) [mL/min/kg],AUC (Rat IV and PO PK studies; 3 mg/kg) [ng·h/mL],PXR Max Induction (% of rifampicin) (human PXR),"AUC (Rat IV and PO PK studies; 10 mg/kg for Compound A, read-out: Rat po AUC) [ng·h/mL]","EC50 (F508del-CFTR; Table 7, Compound 1 and metabolites, read-out: CFTRdF508 EC50) [µM]",Compound
0.1 to 1,0.27,100,3.6,20300,8 % of rifampicin,,,"C[C@@H]1CN(c2nc(-n3ccc(OCC4(C(F)(F)F)CC4)n3)ccc2C(=O)NS(=O)(=O)c2ccc(C#N)cc2)C(C)(C)C1 [Comp. 27, N-(4-Cyanophenyl)sulfonyl-6-[3-[[1-(trifluoromethyl)cyclopropyl]methoxy]pyrazol-1-yl]-2-[(4S)-2,2,4-trimethylpyrrolidin-1-yl]pyridine-3-carboxamide]"
< 0.1,0.09,26,6.1,2300,0 % of rifampicin,,,"C[C@@H]1CN(c2nc(-n3ccc(OCC4C(C)(C)C4(C)C)n3)ccc2C(=O)NS(=O)(=O)c2ccccc2)C(C)(C)C1 [Comp. 30, N-(Benzenesulfonyl)-6-[3-[(2,2,3,3-tetramethylcyclopropyl)methoxy]pyrazol-1-yl]-2-[(4S)-2,2,4-trimethylpyrrolidin-1-yl]pyridine-3-carboxamide]"
0.1 to 1,0.62,81,5,8500,18 % of rifampicin,,,"C[C@@H]1CN(c2cc(-n3ccc(OCCC4(C(F)(F)F)CC4)n3)ncc2C(=O)NS(=O)(=O)c2ccccc2)C(C)(C)C1 [Comp. 44, (S)—N-(phenylsulfonyl)-6-(3-(2-(1-(trifluoromethyl)cyclopropyl)ethoxy)-1H-pyrazol-1-yl)-4-(2,2,4-trimethylpyrrolidin-1-yl)nicotinamide]"
< 0.1,0.03,,,,32 % of rifampicin,,,"C[C@@H]1CN(c2nc(-n3ccc(OCC4(C(F)(F)F)CC4)n3)ccc2C(=O)NS(=O)(=O)c2ccccc2F)C(C)(C)C1 [Comp. 50, N-(2-fluorophenyl)sulfonyl-6-[3-[[1-(trifluoromethyl)cyclopropyl]methoxy]pyrazol-1-yl]-2-[(4S)-2,2,4-trimethylpyrrolidin-1-yl]pyridine-3-carboxamide]"
< 0.1,0.05,100,5.2,10500,17 % of rifampicin,,,"C[C@@H]1CN(c2nc(-n3ccc(OCC4(C(F)(F)F)CC4)n3)ccc2C(=O)NS(=O)(=O)c2cccc(F)c2)C(C)(C)C1 [Comp. 51, N-(3-Fluorophenyl)sulfonyl-6-[3-[[1-(trifluoromethyl)cyclopropyl]methoxy]pyrazol-1-yl]-2-[(4S)-2,2,4-trimethylpyrrolidin-1-yl]pyridine-3-carboxamide]"
< 0.1,0.04,98,2.3,13700,39 % of rifampicin,,,"COc1ccccc1S(=O)(=O)NC(=O)c1ccc(-n2ccc(OCC3(C(F)(F)F)CC3)n2)nc1N1C[C@@H](C)CC1(C)C [Comp. 53, N-(2-methoxyphenyl)sulfonyl-6-[3-[[l-(trifluoromethyl)cyclopropyl]methoxy]pyrazol-1-yl]-2-[(4S)-2,2,4-trimethylpyrrolidin-1-yl]pyridine-3-carboxamide]"
< 0.1,0.05,,,,22 % of rifampicin,,,"C[C@@H]1CN(c2nc(-n3ccc(OCC4(C(F)F)CC4)n3)ccc2C(=O)NS(=O)(=O)c2ccccc2)C(C)(C)C1 [Comp. 55, N-(Benzenesulfonyl)-6-[3-[[1-(difluoromethyl)cyclopropyl]methoxy]pyrazol-1-yl]-2-[(4S)-2,2,4-trimethylpyrrolidin-1-yl]pyridine-3-carboxamide]"
< 0.1,0.08,,,,2 % of rifampicin,,,"COc1ccc(S(=O)(=O)NC(=O)c2ccc(-n3ccc(OCC4(C(F)(F)F)CC4)n3)nc2N2C[C@@H](C)CC2(C)C)c(C)c1 [Comp. 57, N-(4-Methoxy-2-methyl-phenyl)sulfonyl-6-[3-[[1-(trifluoromethyl)cyclopropyl]methoxy]pyrazol-1-yl]-2-[(4S)-2,2,4-trimethylpyrrolidin-1-yl]pyridine-3-carboxamide]"
< 0.1,0.05,,,,4 % of rifampicin,,,"Cc1ccccc1S(=O)(=O)NC(=O)c1ccc(-n2ccc(OCC3(C(F)(F)F)CCC3)n2)nc1N1C[C@@H](C)CC1(C)C [Comp. 58, N-(o-Tolylsulfonyl)-6-[3-[[1-(trifluoromethyl)cyclobutyl]methoxy]pyrazol-1-yl]-2-[(4S)-2,2,4-trimethylpyrrolidin-1-yl]pyridine-3-carboxamide]"
,,28,17.8,,2 % of rifampicin,1200,,"C[C@@H]1CN(c2nc(-n3ccc(OCC(C)(C)C)n3)ccc2C(=O)NS(=O)(=O)c2cccnc2N)C(C)(C)C1 [Comp. A, reference compound]"
,,,29.2,,9 % of rifampicin,,,"C[C@@H]1CN(c2nc(-n3ccc(OCC(C)(C)C)n3)ccc2C(=O)NS(=O)(=O)c2ccccc2)C(C)(C)C1 [Comp. B, reference compound]"
,0.4,,,,20 % of rifampicin,,,"C[C@@H]1CN(c2nc(-n3ccc(OCC4CC4)n3)ccc2C(=O)NS(=O)(=O)c2cccnc2N)C(C)(C)C1 [Comp. D, reference compound]"
< 0.1,0.02,,,,4 % of rifampicin,,,"Cc1ccccc1S(=O)(=O)NC(=O)c1ccc(-n2ccc(OCCC3(C(F)(F)F)CC3)n2)nc1N1C[C@@H](C)CC1(C)C [Compound 4, N-(o-Tolylsulfonyl)-6-[3-[2-[1-(trifluoromethyl)cyclopropyl]ethoxy]pyrazol-1-yl]-2-[(4S)-2,2,4-trimethylpyrrolidin-1-yl]pyridine-3-carboxamide]"
0.1 to 1,0.11,,,,2 % of rifampicin,,,"COc1ccc(S(=O)(=O)NC(=O)c2ccc(-n3ccc(OCC4(C(F)(F)F)CC4)n3)nc2N2C[C@@H](C)CC2(C)C)c(OC)c1 [Compound 13, N-(2,4-Dimethoxyphenyl)sulfonyl-6-[3-[[1-(trifluoromethyl)cyclopropyl]methoxy]pyrazol-1-yl]-2-[(4S)-2,2,4-trimethylpyrrolidin-1-yl]pyridine-3-carboxamide]"
< 0.1,0.02,,,,0 % of rifampicin,,,"Cc1ccccc1S(=O)(=O)NC(=O)c1ccc(-n2ccc(OCC3C(C)(C)C3(C)C)n2)nc1N1C[C@@H](C)CC1(C)C [Compound 15, N-(o-Tolylsulfonyl)-6-[3-[(2,2,3,3-tetramethylcyclopropyl)methoxy]pyrazol-1-yl]-2-[(4S)-2,2,4-trimethylpyrrolidin-1-yl]pyridine-3-carboxamide]"
< 0.1,0.03,,,,7 % of rifampicin,,0.03,"C[C@@H]1CN(c2nc(-n3ccc(OCCC4(C(F)(F)F)CC4)n3)ccc2C(=O)NS(=O)(=O)c2ccc(O)cc2)C(C)(C)C1 [Compound 31, N-(4-Hydroxyphenyl)sulfonyl-6-[3-[2-[1-(trifluoromethyl)cyclopropyl]ethoxy]pyrazol-1-yl]-2-[(4S)-2,2,4-trimethylpyrrolidin-1-yl]pyridine-3-carboxamide]"
